Results taken from paper PMC9409995, “Pharmacological Properties and Function of the PxOctβ3 Octopamine Receptor in Plutella xylostella (L.)” (Insects, 2022).

What was measured:
PxOctβ3 [1] = target: T1, PxOctβ3 (Plutella xylostella, UniProt Z9TZ33AL48); experiment: intracellular cAMP assay, HEK-293 cells stably expressing the receptor; assay type: cell-based
T1 construct: pcDNA3.1-PxOctβ3 stably expressed in HEK-293 cells; ORF also cloned in pEGFP-N1

PxOctβ3 [2] = target: T1, PxOctβ3; experiment: as above; assay type: cell-based; details: agonist; 1 nM-100 μM; b43 prints approximately 65 nM

SMILES	fold cAMP at 10 μM (PxOctβ3 [1]; weak agonist)	fold cAMP at 10 μM (PxOctβ3 [1]; agonist) [fold]	other results
NCCc1ccccc1 [2-phenylethylamine]	clonidine, amitraz, and 2-phenylethylamine were barely effective agonists	–	–
Cc1ccc(/N=C/N(C)/C=N/c2ccc(C)cc2C)c(C)c1 [amitraz]	clonidine, amitraz, and 2-phenylethylamine were barely effective agonists	–	–
Clc1cccc(Cl)c1NC1=NCCN1 [clonidine]	clonidine, amitraz, and 2-phenylethylamine were barely effective agonists	–	–
NCCc1ccc(O)c(O)c1 [dopamine]	–	2.3	–
NC[C@H](O)c1ccc(O)cc1 [octopamine]	–	–	EC50 (PxOctβ3 [2]): 65 nM
NCCc1ccc(O)cc1 [tyramine]	–	9.6	–
